Laboratory results from the supplement of paper PMC8633005.

Tests used:
[1] = test system: FM-MEL-2; settings: 72 h
Description: (§1)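 Validation dose-response testing of selected drugs on NRAS-mutant melanoma patient-derived cells, run in 2D culture and in 3D spheroids (ultra-low attachment plates), in triplicate per concentration. Viability was read by CellTiter-Glo after 72 h. EC50 came from Breeze curve fitting, and DSS was calculated from the curve.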

[2] = test system: FM-MEL-3; settings: 72 h
Description: as §1

[3] = test system: FM-MEL-6; settings: 72 h
Description: as §1

[4] = test system: FM-MEL-2; experiment: drug sensitivity score (DSS) (DSS (unitless)); higher = more sensitive; settings: 72 h
Description: as §1

[5] = test system: FM-MEL-3; experiment: as above; settings: 72 h
Description: as §1

[6] = test system: FM-MEL-6; experiment: as above; settings: 72 h
Description: as §1

[7] = test system: Bowes; experiment: drug sensitivity score (DSS) (DSS (unitless, 0-50 scale)); higher = more sensitive (stronger viability inhibition); extreme values may be limits of the assay; settings: 72 h; culture: 2D
Summary of the method: (§2)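 Drug sensitivity scores, modified area-under-curve measures, were derived from dose-response curves fitted in the in-house Breeze software. The curves came from melanoma cell lines and patient-derived melanoma cultures (1000–1500 cells per well) grown in 2D in 384-well plates holding a 527-compound oncology library. Each compound was dissolved in DMSO or water and tested at five concentrations across a 10,000-fold range. Viability was read by CellTiter-Glo luminescence after 72 h at 37 °C.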

[8] = test system: FM-MEL-2; experiment: as above; settings: 72 h; culture: 2D
Summary of the method: as §2

[9] = test system: FM-MEL-3; experiment: as above; settings: 72 h; culture: 2D
Summary of the method: as §2

[10] = test system: FM-MEL-6; experiment: as above; settings: 72 h; culture: 2D
Summary of the method: as §2

[11] = test system: SK-MEL-28; experiment: as above; settings: 72 h; culture: 2D
Summary of the method: as §2

[12] = test system: SK-MEL-2; experiment: as above; settings: 72 h; culture: 2D
Summary of the method: as §2

[13] = test system: WM165; experiment: as above; settings: 72 h; culture: 2D
Summary of the method: as §2

[14] = test system: WM852; experiment: as above; settings: 72 h; culture: 2D
Summary of the method: as §2

Row | Compound | EC50 (cell viability) ([1]; culture: 2D) | EC50 (cell viability) ([1]; culture: 3D spheroid) | EC50 (cell viability) ([2]; culture: 2D) | EC50 (cell viability) ([2]; culture: 3D spheroid) | EC50 (cell viability) ([3]; culture: 2D) | EC50 (cell viability) ([3]; culture: 3D spheroid) | drug sensitivity score ([4]; culture: 2D) | drug sensitivity score ([4]; culture: 3D spheroid) | drug sensitivity score ([5]; culture: 2D) | drug sensitivity score ([5]; culture: 3D spheroid) | drug sensitivity score ([6]; culture: 2D) | drug sensitivity score ([6]; culture: 3D spheroid) | drug sensitivity score [7] | drug sensitivity score [8] | drug sensitivity score [9] | drug sensitivity score [10] | drug sensitivity score [11] | drug sensitivity score [12] | drug sensitivity score [13] | drug sensitivity score [14]
1 | CC(C)Nc1cc(-c2c[nH]c(C(=O)N[C@H](CO)c3cccc(Cl)c3)c2)c(Cl)cn1 [Ulixertinib] | 0.127 µM | 0.076 µM | 0.279 µM | 0.0831 µM | 0.236 µM | 0.125 µM | 16.5 | 19.4 | 17 | 25.2 | 8.1 | 15.3 | 4.2 | 15 | 17.1 | 7.6 | 13.3 | 9.7 | 12.6 | 4.1
2 | Cn1cnc2c(F)c(Nc3ccc(Br)cc3Cl)c(C(=O)NOCCO)cc21 [Selumetinib] | 0.0756 µM | 0.071 µM | 0.0789 µM | 0.0564 µM | 0.0836 µM | 0.0561 µM | 19.7 | 20.3 | 23.8 | 27.1 | 16.3 | 21.9 | 0 | 16.5 | 24.9 | 13 | 18.2 | 13.2 | 17.3 | 4.9
3 | CC(=O)Nc1cccc(-n2c(=O)n(C3CC3)c(=O)c3c(Nc4ccc(I)cc4F)n(C)c(=O)c(C)c32)c1 [Trametinib] | 0.0006 µM | 0.0005 µM | 0.0008 µM | 0.0002 µM | 0.0013 µM | 0.0005 µM | 22.3 | 23.3 | 27.6 | 34.6 | 17.1 | 24 | 1.8 | 18.1 | 26.1 | 15.6 | 21.1 | 17.9 | 21.2 | 6.8
4 | COc1cc(OC)c(/C=C/S(=O)(=O)Cc2ccc(OC)c(NCC(=O)O)c2)c(OC)c1 [Rigosertib] | 0.0442 µM | 0.11 µM | 0.042 µM | 0.0392 µM | 0.0562 µM | 1.54 µM | 10.8 | 10.5 | 13.2 | 16.9 | 8.6 | 1.3 | 19.9 | 7.6 | 15.5 | 18.6 | 9.5 | 17 | 21.4 | 22.6
5 | Cc1cn(-c2cc(NC(=O)c3ccc(C)c(Nc4nccc(-c5cccnc5)n4)c3)cc(C(F)(F)F)c2)cn1 [Nilotinib] | 0.869 µM | 0.27 µM | 0.94 µM | 0.266 µM | > 10 µM | > 10 µM | 10.9 | 16.7 | 9.5 | 15.1 | 0 | 0 | 0 | 12.4 | 8.5 | 2.1 | 0 | 0 | 0 | 0.8
